Assay results: patent US20050197371A1, “Urea derivatives as PDGFR modulators” (Ambit Biosciences Corporation, priority 2003, published 2005)

These compounds were tested against T1, PDGFRB(DKIN) (PDGFR-β) (Homo sapiens, UniProt P09619) (assay: Phage-display competitive binding assay, PDGFRB(DKIN)). Details: T7 phage displaying human PDGFR-β, DKIN construct; read-out: Binding Assay: PDGFRB(DKIN).
T1 construct: PDGFRB(DKIN)
Description: The term “ND” represents non-determined values.
Briefly, T7 phage displaying human PDGFR-β were incubated with an affinity matrix coated with known PDGFR-β inhibitor in the presence of various concentrations of the soluble competitor molecules.
`CC(C)(C)c1cc(NC(=O)Nc2ccc(Br)cc2C(F)(F)F)on1` [Compound A26] was tested, and the Kd was 1 to 10 µM. `CC(C)(C)c1cc(NC(=O)Nc2ccc(NC(=O)CC(N)c3ccccc3Cl)cc2)no1` (stereo not shown) [Compound N44] showed a Kd of 1 to 10 µM. With `CC(C)(C)c1cc(NC(=O)Nc2ccc(C(=O)O)cc2)no1` [Compound C2] the Kd was greater than 10 µM. In the case of `CC(C)(C)c1cc(NC(=O)Nc2ccc(NC(=O)c3cccc(F)n3)cc2)no1` [Compound N8], the Kd is reported as less than 0.1 µM. `CCOc1ccc(NC(=O)Nc2cc(C(C)(C)C)on2)cc1` [Compound G20] gave a Kd of less than 0.1 µM. `Cc1ccc(C(=O)Nc2ccc(NC(=O)Nc3cc(C(C)(C)C)on3)cc2)cc1` [Compound N92] showed a Kd of less than 0.1 µM. `CC(C)(C)c1cc(NC(=O)Nc2ccc(NC(=O)c3cc(Cl)cn(Cc4ccccc4)c3=O)cc2)no1` [Compound N112] was tested, and the Kd was 0.1 to 1 µM. In the case of `CC(C)(C)c1cc(NC(=O)Nc2ccc(NC(=O)c3c[nH]c(=O)nc3-c3ccncc3)cc2)no1` [Compound N19], the Kd is reported as 1 to 10 µM. `COc1ccc(C(=O)c2c[nH]c(C(=O)Nc3ccc(NC(=O)Nc4cc(C(C)(C)C)on4)cc3)c2)cc1` [Compound N177] gave a Kd of 1 to 10 µM. Work on `Cc1cc(NC(=O)Nc2ccc(OCc3ccccc3)cc2)n(-c2ccccc2)n1` [Compound H4] yielded a Kd of 1 to 10 µM. `CNC(=O)c1ccc(NC(=O)Nc2cc(C(C)(C)C)on2)cc1` [Compound N85] was tested, and the Kd was 0.1 to 1 µM. `Cc1ccc2sc(C(=O)Nc3ccc(NC(=O)Nc4cc(C(C)(C)C)on4)cc3)cc2c1` [Compound N133] showed a Kd of less than 0.1 µM. For `Cc1ccc(-n2nc(C(C)(C)C)cc2NC(=O)Nc2ccc(C(C)C)cc2)cc1` [Compound D1, 1-(3-tert-butyl-1-p-tolyl-1H-pyrazol-5-yl)-3-(4-isopropylphenyl)urea], the Kd was greater than 10 µM. Compound `CC(C)(C)c1cc(NC(=O)Nc2ccc([N+](=O)[O-])cc2)no1` [Compound A21] has a Kd of 0.1 to 1 µM. With `C[C@H](NC(=O)c1ccc(NC(=O)Nc2cc(C(C)(C)C)on2)cc1)c1ccccc1` [Compound N88] the Kd was 0.1 to 1 µM. Work on `Cc1ccc(CNc2ccc(NC(=O)Nc3cc(C(C)(C)C)on3)cc2)cc1` [Compound O9] yielded a Kd of 0.1 to 1 µM. In the case of `COc1ccc(NC(=O)Nc2cc(C(C)(C)C)on2)cc1OC` [Compound A55], the Kd is reported as 1 to 10 µM. In the case of `CSc1ccc(NC(=O)Nc2cc(C(C)(C)C)on2)cc1` [Compound A37], the Kd is reported as 0.1 to 1 µM. `Cc1ccc(S(=O)(=O)Nc2ccc(NC(=O)Nc3cc(C(C)(C)C)on3)cc2)cc1` [Compound V2] was tested, and the Kd was 1 to 10 µM. With `Cn1nc(C(C)(C)C)cc1NC(=O)Nc1ccc(OCc2ccccc2)cc1` [Compound H2] the Kd was 0.1 to 1 µM. Compound `CC(C)(C)c1cc(NC(=O)Nc2ccc(NC(=O)c3ccc(-n4cc(-c5ccncn5)cn4)cc3)cc2)no1` [Compound N76] has a Kd of 0.1 to 1 µM. Work on `CC(C)Oc1ccc(NC(=O)Nc2cc(C(C)(C)C)no2)cc1` [Compound G33] yielded a Kd of less than 0.1 µM. With `CC(C)(C)c1cc(NC(=O)Nc2ccc(NC(=O)c3cccc4nsnc34)cc2)no1` [Compound N109] the Kd was less than 0.1 µM. With `CC(C)c1nnsc1C(=O)Nc1ccc(NC(=O)Nc2cc(C(C)(C)C)on2)cc1` [Compound N182] the Kd was 1 to 10 µM. `CC(C)(C)c1cc(NC(=O)Nc2ccc(N3C(=O)c4ccccc4C3=O)cc2)no1` [Compound A57] gave a Kd of less than 0.1 µM. `Cc1c(NC(=O)Nc2cc(C(C)(C)C)on2)c(=O)n(-c2ccccc2)n1C` [Compound Z45] showed a Kd greater than 10 µM. Work on `Cn1nc(C(F)(F)F)c(C(=O)Nc2ccc(NC(=O)Nc3cc(C(C)(C)C)on3)cc2)c1Cl` [Compound N68] yielded a Kd of 0.1 to 1 µM. For `CC(C)(C)c1cc(NC(=O)Nc2ccc(C(=O)Nc3ccc(F)cc3F)cc2)no1` [Compound N153], the Kd was 0.1 to 1 µM. Compound `Cc1ccc2[nH]c(C(=O)Nc3ccc(NC(=O)Nc4cc(C(C)(C)C)on4)cc3)cc2c1` [Compound N127] has a Kd of less than 0.1 µM. Work on `Cc1ccc(-c2nc(C(=O)Nc3ccc(NC(=O)Nc4cc(C(C)(C)C)on4)cc3)cs2)cc1` [Compound N178] yielded a Kd of less than 0.1 µM. `C=N/C(=N\C)Oc1cccc(C(=O)Nc2ccc(NC(=O)Nc3cc(C(C)(C)C)on3)cc2)c1` [Compound N74] gave a Kd of less than 0.1 µM. `CC(C)(C)OC(=O)Nc1ccc(NC(=O)Nc2cc(C(C)(C)C)on2)cc1` [Compound N101] showed a Kd of 0.1 to 1 µM. With `CC(C)(C)c1cc(N2CCCN(c3ccc(OCc4ccccc4)cc3)C2=O)no1` [Compound E3] the Kd was greater than 10 µM. `CC(C)(C)c1cc(NC(=O)Nc2ccc(OCC(O)CO)cc2)no1` (stereo not shown) [Compound G28] was tested, and the Kd was 0.1 to 1 µM. `CC(C)(C)c1cc(NC(=O)Nc2ccc(NC(=O)C3=Cc4cc(F)cc(S(C)(=O)=O)c4C3)cc2)no1` [Compound N62] gave a Kd of 1 to 10 µM. `CC(C)(C)c1cc(NC(=O)Nc2ccc(NC(=O)c3ccc4ncccc4c3)cc2)no1` [Compound N151] was tested, and the Kd was less than 0.1 µM. For `Cc1nn(C)c(Cl)c1C(=O)Nc1ccc(NC(=O)Nc2cc(C(C)(C)C)on2)cc1` [Compound N116], the Kd was less than 0.1 µM. `CC(C)(C)c1cc(NC(=O)Nc2ccc(-c3nc(-c4ccc(Cl)cc4)no3)cc2)no1` [Compound P7] gave a Kd of 0.1 to 1 µM. `Cc1nc(-c2ccccc2)sc1C(=O)Nc1ccc(NC(=O)Nc2cc(C(C)(C)C)on2)cc1` [Compound N181] showed a Kd of 0.1 to 1 µM. With `COC(=O)c1cccc(COc2ccc(NC(=O)Nc3cc(C(C)(C)C)on3)cc2)c1` [Compound G7] the Kd was less than 0.1 µM. In the case of `COC(=O)c1cccc(Sc2ncc(NC(=O)Nc3cc(C(C)(C)C)on3)s2)c1` [Compound O8], the Kd is reported as 0.1 to 1 µM. In the case of `CC(C)(C)c1cc(NC(=O)Nc2ccc(OCc3ccccc3Cl)cc2)no1` [Compound G10], the Kd is reported as less than 0.1 µM. `CC(C)(C)c1cc(NC(=O)Nc2ccc(NC(=O)c3cc4cccc5c4n(c3=O)CC5)cc2)no1` [Compound N60] showed a Kd of less than 0.1 µM. Compound `Cc1cc(NC(=O)c2cn3nc(Cl)ccc3n2)ccc1NC(=O)Nc1cc(C(C)(C)C)on1` [Compound N169] has a Kd of 0.1 to 1 µM. For `O=C(Nc1ccc(Br)cc1)Nc1cc(C(F)(F)F)cc(Cl)n1` [Compound Z72], the Kd was greater than 10 µM. With `CC(C)(C)c1cc(NC(=O)Nc2ccc(NC(=O)c3ccccc3Cl)cc2)no1` [Compound N23] the Kd was less than 0.1 µM. Work on `CC(C)c1ccc(NC(=O)Nc2cc(C(C)(C)C)no2)cc1` [Compound A11] yielded a Kd of 0.1 to 1 µM. `CCOC(=O)NN(C(=O)Nc1cc(C(C)(C)C)on1)c1ccc(OC)cc1` [Compound J13] showed a Kd greater than 10 µM. `CC(C)(C)c1cc(NC(=O)Nc2ccc(NC(=O)c3cc(N4CCOCC4)nc(N4CCOCC4)n3)cc2)no1` [Compound N54] gave a Kd of less than 0.1 µM. For `CC(C)(C)c1cc(NC(=O)Nc2ccc(NC(=O)c3cn4nc(Cl)ccc4n3)cc2)no1` [Compound N9], the Kd was less than 0.1 µM. `Cc1cc(NC(=O)[C@](C)(O)CSc2ccc(F)cc2)ccc1NC(=O)Nc1cc(C(C)(C)C)on1` [Compound N170] was tested, and the Kd was 0.1 to 1 µM. For `CC(C)c1oc(Cl)nc1C(=O)Nc1ccc(NC(=O)Nc2cc(C(C)(C)C)on2)cc1` [Compound N75], the Kd was less than 0.1 µM. With `COc1ccc(N(C)C(=O)N(C)c2cc(C(C)(C)C)no2)cc1` [Compound J8] the Kd was greater than 10 µM. Work on `COc1ccc(NC(=O)Nc2cc(C(C)(C)C)on2)cc1` [Compound A29] yielded a Kd of 0.1 to 1 µM. Compound `Cn1nc(C(F)(F)F)c2cc(C(=O)Nc3ccc(NC(=O)Nc4cc(C(C)(C)C)on4)cc3)sc21` [Compound N64] has a Kd greater than 10 µM. In the case of `COc1cc(C(=O)Nc2ccc(NC(=O)Nc3cc(C(C)(C)C)on3)cc2)nc(OC)n1` [Compound N162], the Kd is reported as less than 0.1 µM. Work on `CC(=O)c1c[nH]c(C(=O)Nc2ccc(NC(=O)Nc3cc(C(C)(C)C)on3)cc2)c1` [Compound N43] yielded a Kd of less than 0.1 µM. Compound `CC(C)(C)c1cc(NC(=O)Nc2ccc(C(N)=O)cc2)no1` [Compound N86] has a Kd of 0.1 to 1 µM. Compound `COc1ccc(NC(=O)Nc2cc(C(C)(C)C)no2)cc1` [Compound A30] has a Kd of less than 0.1 µM. Work on `COc1cc(OC)nc(Oc2cccnc2C(=O)Nc2ccc(NC(=O)Nc3cc(C(C)(C)C)on3)cc2)n1` [Compound N56] yielded a Kd of 1 to 10 µM. With `CC(C)(C)c1cc(NC(=O)Nc2ccc(NC(=O)CSCC(=O)Nc3ccccc3)cc2)no1` [Compound N72] the Kd was 0.1 to 1 µM. With `CC(C)(C)c1cc(NC(=O)Nc2ccc(-c3nc(-c4ccc(C(F)(F)F)cc4)no3)cc2)no1` [Compound P8] the Kd was greater than 10 µM. For `CC(C)(C)c1cc(NC(=O)Nc2ccc(NC(=O)Cc3oc(-c4ccc(Cl)cc4)nc3-c3ccccc3)cc2)no1` [Compound N66], the Kd was 0.1 to 1 µM. In the case of `CC(C)(C)c1cc(NC(=O)Nc2ccc(NC(=O)c3cc4ccccc4[nH]3)cc2)no1` [Compound N161], the Kd is reported as less than 0.1 µM. In the case of `CC(C)(C)c1cc(NC(=O)Nc2ccc(OCC3CC3)cc2)no1` [Compound G37], the Kd is reported as less than 0.1 µM. Work on `CC(C)(C)c1cc(NC(=O)Nc2ccc(NC(=O)c3ccc4cnccc4n3)cc2)no1` [Compound N110] yielded a Kd of less than 0.1 µM. `CC(C)(C)c1cc(N2CCCN(c3ccc(OCc4ccccc4)cc3)C2=O)on1` [Compound E2] gave a Kd of 0.1 to 1 µM. `CC(C)(C)c1cc(NC(=O)Nc2ccc(OCc3ccc(C(=O)c4ccccc4)cc3)cc2)no1` [Compound G9] showed a Kd of 0.1 to 1 µM. In the case of `CC(C)(C)c1cc(NC(=O)Nc2ccc(-c3nc(-c4cccc5ccccc45)no3)cc2)no1` [Compound P5], the Kd is reported as 0.1 to 1 µM. Compound `CC(C)(C)c1cc(NC(=O)Nc2ccc(NC(=O)c3cccc[n+]3[O-])cc2)no1` [Compound N81] has a Kd of less than 0.1 µM. Compound `CC(C)(C)c1cc(NC(=O)Nc2ccc3c(c2)OCO3)no1` [Compound A56] has a Kd of 1 to 10 µM. In the case of `CC(C)(C)c1cc(NC(=O)Nc2ccc(OCc3ccc(F)cc3)cc2)no1` [Compound G35], the Kd is reported as less than 0.1 µM. `Cn1nc(-c2ccccc2)c2cc(C(=O)Nc3ccc(NC(=O)Nc4cc(C(C)(C)C)[nH]n4)cc3)[nH]c21` [Compound N5] showed a Kd of 0.1 to 1 µM. In the case of `Cn1nc(C2CC2)cc1NC(=O)Nc1ccc(OCc2ccccc2)cc1` [Compound H7], the Kd is reported as greater than 10 µM. Work on `COc1cc(NC(=O)c2cn3nc(Cl)ccc3n2)ccc1NC(=O)Nc1cc(C(C)(C)C)on1` [Compound N171] yielded a Kd of 0.1 to 1 µM. In the case of `O=C(Nc1ccc(Cl)cc1)Nc1cc(C2CC2)nn1-c1ccccc1` [Compound D10], the Kd is reported as 1 to 10 µM. Work on `CC(C)(C)c1cc(NC(=O)Nc2ccc(NC(=O)c3cccc(OC(F)F)c3)cc2)no1` [Compound N25] yielded a Kd of 0.1 to 1 µM. Work on `CC(C)(C)c1cc(NC(=O)Nc2ccc(NC(=O)c3csnn3)cc2)no1` [Compound N14] yielded a Kd of 0.1 to 1 µM. `CCOC(=O)CCc1c(C)[nH]c(C(=O)Nc2ccc(NC(=O)Nc3cc(C(C)(C)C)on3)cc2)c1C` [Compound N83] showed a Kd of less than 0.1 µM.
